Measurements taken from patent US20220293224A1, “MODULAR SYNTHON-BASED SCREENING APPROACH FOR USE IN DRUG DISCOVERY FOR DISEASES” (priority 2021, published 2022).
Like-named read-outs stand apart in the source and are kept apart here.

Tests used:
human CB2 [1] = target: T1, human CB2 (Homo sapiens, UniProt P34972); experiment: Tango β-arrestin recruitment antagonist assay at CB2; type: cell-based; set-up: expressed in transfected cells; host or cells: HTLA cells; conditions: Tango antagonist assay with 100 nM CP55940; n=4 independent assays, 16 dose-response points; read-out: CB2 Antagonist potency Ki
Method: (§1) The Tango arrestin recruitment assays were performed as previously described. Briefly, HTLA cells were transiently transfected with human CB1 or CB2 Tango DNA construct overnight in DMEM supplemented with 10% FBS, 100 μg/ml streptomycin and 100 U/ml penicillin. The transfected cells were then plated into Poly-L-Lysine coated 384-well white clear bottom cell culture plates in DMEM containing 1% dialyzed FBS at a density of 10,000-15,000 cells/well. After 6 hours incubation, the plates were added with drug solutions prepared in DMEM containing 1% dialyzed FBS for overnight incubation. […] On the day of assay, medium and drug solutions were removed and 20 μL/well of BrightGlo reagent (Promega) was added. The plates were further incubated for 20 min at room temperature and counted using a Wallac TriLux Microbeta counter (PerkinElmer). Results were analyzed using GraphPad Prism 8.

human CB1 = target: T2, human CB1 (Homo sapiens, UniProt P21554); type: cell-based; conditions: read-out: CB1 Antagonist potency Ki
T2 construct: expressed in transfected cells; host or cells: HTLA cells
Method: as §1

rat CB1 receptor = target: T3, rat CB1 receptor (Rattus norvegicus, UniProt P20272); experiment: Radioligand binding assay with [3H]CP-55,940, rat brain membranes
T3 construct: membrane preparations from rat brain; from tissue; host or cells: rat brain membranes
Method: (§2) The affinities (IQ of the new compounds for rat CB1 receptor as well as for human CB2 receptors were obtained by using membrane preparations from rat brain or HEK293 cells expressing hCB2 receptors, respectively, and [^3H]CP-55,940 as the radioligand, as previously described. Results from the competition assays were analyzed using nonlinear regression to determine the IC50 values for the ligand; Ki values were calculated from the I50 (Prism by GraphPad Software, Inc.). Each experiment was performed in triplicate and Ki values determined from three independent experiments and are expressed as the mean of the three values.

human CB2 [2] = target: T1, human CB2; experiment: Radioligand binding assay with [3H]CP-55,940, HEK293 cells expressing hCB2; set-up: expressed in transfected cells; host or cells: HEK293 cells
Method: as §2

[3] = system: panel of more than 300 receptors; experiment: PRESTO-Tango GPCRome off-target panel; type: cell-based; conditions: for activities at off-targets in follow-up dose-response curves: follow-up dose-response of potential actives
Method: Screening of the compounds in the PRESTO-Tango GPCRome was performed as previously described with modifications. First, HTLA cells were plated in poly-L-lysine coated 384-well white plates in DMEM containing 1% dialyzed FBS for 6 hours. Next, the cells were transfected with 20 ng/well PRESTO-Tango receptor DNAs overnight. Then, the cells were added with 10 μM drugs without changing the medium and incubated for another 24 hours. The remaining steps of the PRESTO-Tango protocol were followed. The results were plotted as fold of basal against individual receptors in the GraphPad 8.0 software. For the receptors that had >3-fold of basal signaling activity, assays were repeated as a full dose-response assay and the results were plotted as a percentage of reference compounds.

[4] = rat CB1, [3H]CP-55,940, estimates from 3-point assays, read-out: CB1 affinity Ki (asterisk: estimate from 3-point assays)
[5] = human CB2, [3H]CP-55,940 radioligand, read-out: CB2 affinity Ki
[6] = rat CB1, [3H]CP-55,940 radioligand, read-out: CB1 affinity Ki
[7] = human CB2, [3H]CP-55,940, estimates from 3-point assays, read-out: CB2 affinity Ki (asterisk: estimate from 3-point assays)

T1 sequence (P34972 whole entry): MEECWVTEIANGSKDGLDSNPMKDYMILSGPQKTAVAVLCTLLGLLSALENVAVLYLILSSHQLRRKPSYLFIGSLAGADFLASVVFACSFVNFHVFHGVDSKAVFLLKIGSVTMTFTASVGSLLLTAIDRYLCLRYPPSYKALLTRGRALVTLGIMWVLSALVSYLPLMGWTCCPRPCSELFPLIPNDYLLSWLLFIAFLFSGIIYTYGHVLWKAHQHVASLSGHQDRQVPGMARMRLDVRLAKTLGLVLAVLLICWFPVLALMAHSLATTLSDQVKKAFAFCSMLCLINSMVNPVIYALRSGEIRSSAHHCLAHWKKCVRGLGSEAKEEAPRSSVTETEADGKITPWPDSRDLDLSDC
T3 sequence (P20272 whole entry): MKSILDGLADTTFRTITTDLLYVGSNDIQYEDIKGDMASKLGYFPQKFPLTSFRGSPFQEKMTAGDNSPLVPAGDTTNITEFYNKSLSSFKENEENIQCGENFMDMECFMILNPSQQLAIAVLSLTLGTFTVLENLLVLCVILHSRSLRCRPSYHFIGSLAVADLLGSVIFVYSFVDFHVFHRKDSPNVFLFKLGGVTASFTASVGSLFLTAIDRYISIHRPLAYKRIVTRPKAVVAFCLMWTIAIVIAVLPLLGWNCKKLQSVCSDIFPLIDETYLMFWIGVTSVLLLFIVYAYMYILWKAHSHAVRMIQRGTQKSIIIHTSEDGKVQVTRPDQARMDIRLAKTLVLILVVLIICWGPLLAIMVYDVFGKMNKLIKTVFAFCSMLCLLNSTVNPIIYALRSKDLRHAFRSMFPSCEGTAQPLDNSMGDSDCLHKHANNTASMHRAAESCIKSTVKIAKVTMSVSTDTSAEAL
T2 sequence (P21554 whole entry): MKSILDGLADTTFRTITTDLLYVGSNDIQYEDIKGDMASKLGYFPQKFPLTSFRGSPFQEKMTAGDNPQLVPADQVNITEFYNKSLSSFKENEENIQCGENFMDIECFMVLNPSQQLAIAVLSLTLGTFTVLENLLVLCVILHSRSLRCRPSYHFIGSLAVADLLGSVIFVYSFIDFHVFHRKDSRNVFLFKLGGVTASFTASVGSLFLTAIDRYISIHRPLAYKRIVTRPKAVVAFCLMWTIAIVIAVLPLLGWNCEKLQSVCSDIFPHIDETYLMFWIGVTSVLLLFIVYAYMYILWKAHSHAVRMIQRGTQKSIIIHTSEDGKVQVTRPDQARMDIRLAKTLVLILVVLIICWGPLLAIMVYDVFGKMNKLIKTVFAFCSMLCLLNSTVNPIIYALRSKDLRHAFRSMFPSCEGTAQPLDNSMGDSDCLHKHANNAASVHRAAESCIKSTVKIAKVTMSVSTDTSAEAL

Compound	Ki (human CB2 [1])	Ki (human CB1)	Ki (rat CB1 receptor; [4])	Ki (human CB2 [2]; [5])	Ki (rat CB1 receptor; [6])	Ki (human CB2 [2]; [7])	activities at off-targets in follow-up dose-response curves [3]	selectivity against the GPCRome-Tango panel ([3]; panel of more than 300 receptors)
O=C(NCC1(Cc2ccccc2)CC=CCC1)C(=O)Nc1c(F)ccc(Br)c1F (stereo not drawn) [BRI-13566]	4.04 µM	2.05 µM	6.9 µM	1.2 µM	–	–	–	–
CCCC(NS(=O)(=O)C1CC2(CC2)C1)C(=O)Nc1cccc(N2CCCC2)c1 (stereo not drawn) [BRI-13681]	1.86 µM	0.42 µM	–	4.2 µM	8.2 µM	–	–	–
Cc1ccc(CN(Cc2ccco2)S(=O)(=O)c2cnn(-c3ccccc3F)c2)s1 [BRI-13668]	4.78 µM	–	–	5.2 µM	–	–	–	–
O=C1CCc2cc(OCCNC(=O)N(Cc3ccccc3)Cc3ccc(F)cc3)ccc2N1 [BRI-13619]	0.11 µM	0.05 µM	45 µM	–	–	–	–	–
Cn1ccc(-n2cc(-c3csc(C(NC(=O)c4ccccc4)c4ccccc4)n3)nn2)n1 (stereo not drawn) [BRI-13580]	6.92 µM	5.8 µM	–	–	–	1.5 µM	–	–
CS(C)(=O)=NS(=O)(=O)c1cccc(C(=O)OCc2cccc3ccsc23)c1 [BRI-13650]	12.2 µM	3.22 µM	45 µM	–	–	–	–	–
N#Cc1ccc(C(=O)NCCN(Cc2ccccc2)C(=O)c2cc(C(F)(F)F)cs2)s1 [BRI-13633]	1.53 µM	0.23 µM	10 µM	–	–	–	–	–
O=S(=O)(C1=Cc2cc(Cl)ccc2OC1)N(CCc1ccccn1)Cc1cccnc1 [BRI-13684]	7.28 µM	1.16 µM	–	5.3 µM	25.5 µM	–	–	–
Cc1ccc(NC(=O)Nc2ccn(C3CCCCCC3)n2)cc1S(=O)(=O)N1CCCCCC1 [BRI-13544]	7.78 µM	–	–	–	–	2.5 µM	–	–
CC1(C)NC(=O)N(CCCNC(=O)NCc2oc3ccc(Cl)cc3c2-c2ccccc2)C1=O [BRI-13559]	4.25 µM	0.98 µM	–	12.2 µM	–	–	–	–
Cc1cc(Cl)cn2cc(CNC(=O)C(=O)NC(COc3ccccc3)c3ccccc3)nc12 (stereo not drawn) [BRI-13520]	5.2 µM	1.07 µM	–	12.8 µM	11.6 µM	–	–	–
Cc1ccc(NC(=O)N2CCC(O)(c3ccccc3F)C2)cc1S(=O)(=O)N1CCCCCC1 (stereo not drawn) [BRI-13599]	2.44 µM	2.33 µM	26.5 µM	10.4 µM	–	–	–	–
O=C(c1ccc(F)cc1)c1cc(Cl)ccc1NS(=O)(=O)c1cnn(C2CCCCC2)c1 [BRI-13665]	0.82 µM	0.39 µM	> 7 µM	6.7 µM	–	–	–	–
O=C1Cc2cc(NC(=O)C(=O)NC(CCc3ccccc3)c3ccccc3)ccc2N1 (stereo not drawn) [BRI-13515]	3.81 µM	0.94 µM	–	2.85 µM	6.1 µM	–	–	–
COc1ccc(-c2nccc(N3CCCC(Cc4ccc(N)nc4)C3)n2)cc1 (stereo not drawn) [BRI-13565]	3.77 µM	–	4.5 µM	13.6 µM	–	–	–	–
Cc1ccc(NC(=O)Nc2ccn(C3CCOCC3)n2)cc1S(=O)(=O)N1CCCCCC1 [BRI-13505]	0.54 µM	0.28 µM	–	–	16.4 µM	1 µM	–	–
O=S(=O)(NC1CC1)c1ccc(S(=O)(=O)NC(CCc2ccccc2)c2ccccn2)cc1 (stereo not drawn) [BRI-13661]	4.37 µM	0.55 µM	19 µM	4 µM	–	–	–	–
O=C(C1CC1)N1CCc2ccc(S(=O)(=O)NC(CCc3ccccc3)c3ccccn3)cc21 (stereo not drawn) [BRI-13663]	14.5 µM	–	12.5 µM	14.3 µM	–	–	–	–
C=CCC1(S(=O)(=O)NC(=O)c2ccc(N3CCCCC3)c(S(=O)(=O)N3CCCCCC3)c2)CC1 [BRI-13523]	1.59 µM	1.82 µM	–	0.85 µM	12 µM	–	only negligible activities	high selectivity
O=C(Nc1ccn(C2CCCCC2)n1)C(=O)NC(CCc1ccccc1)c1ccccc1 (stereo not drawn) [BRI-13610]	4.17 µM	0.76 µM	–	0.28 µM	0.62 µM	–	only negligible activities	–
